Laboratory results from PubChem BioAssay (NCI).
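The compound was tested at five concentrations on cells cultured in 96-well plates, with a 48-hour exposure period. Abbreviation: GI50, concentration required for 50% inhibition of growth. TGI denotes the concentration required for complete inhibition of growth.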

How the values were obtained:
Experiment in all cases: NCI-60 cell line screen, 48 h
786-0 renal = system: 786-0 renal
A498 renal = system: A498 renal
A549 NSCLC = system: A549 NSCLC
ACHN renal = system: ACHN renal
BT-549 breast = system: BT-549 breast
CAKI-1 renal = system: CAKI-1 renal
CCRF-CEM leukemia = system: CCRF-CEM leukemia
COLO 205 colon = system: COLO 205 colon
DU-145 prostate = system: DU-145 prostate
EKVX NSCLC = system: EKVX NSCLC
HCC-2998 colon = system: HCC-2998 colon
HCT-116 colon = system: HCT-116 colon
HCT-15 colon = system: HCT-15 colon
HL-60(TB) leukemia = system: HL-60(TB) leukemia
HOP-62 NSCLC = system: HOP-62 NSCLC
HOP-92 NSCLC = system: HOP-92 NSCLC
HS 578T breast = system: HS 578T breast
HT29 colon = system: HT29 colon
IGROV1 ovarian = system: IGROV1 ovarian
K-562 leukemia = system: K-562 leukemia
KM12 colon = system: KM12 colon
LOX IMVI melanoma = system: LOX IMVI melanoma
M14 melanoma = system: M14 melanoma
MALME-3M melanoma = system: MALME-3M melanoma
MCF7 breast = system: MCF7 breast
MDA-MB-231 breast = system: MDA-MB-231 breast
MDA-MB-435 = system: MDA-MB-435
MOLT-4 leukemia = system: MOLT-4 leukemia
NCI-H226 lung = system: NCI-H226 lung
NCI-H23 lung = system: NCI-H23 lung
NCI-H460 lung = system: NCI-H460 lung
NCI-H522 lung = system: NCI-H522 lung
NCI/ADR-RES ovarian = system: NCI/ADR-RES ovarian
OVCAR-3 ovarian = system: OVCAR-3 ovarian
OVCAR-4 ovarian = system: OVCAR-4 ovarian
OVCAR-5 ovarian = system: OVCAR-5 ovarian
OVCAR-8 ovarian = system: OVCAR-8 ovarian
PC-3 prostate = system: PC-3 prostate
RPMI-8226 leukemia = system: RPMI-8226 leukemia
RXF 393 renal = system: RXF 393 renal
SF-268 CNS = system: SF-268 CNS
SF-295 CNS = system: SF-295 CNS
SF-539 CNS = system: SF-539 CNS
SK-MEL-2 melanoma = system: SK-MEL-2 melanoma
SK-MEL-28 melanoma = system: SK-MEL-28 melanoma
SK-MEL-5 melanoma = system: SK-MEL-5 melanoma
SK-OV-3 ovarian = system: SK-OV-3 ovarian
SN12C renal = system: SN12C renal
SNB-19 CNS = system: SNB-19 CNS
SNB-75 CNS = system: SNB-75 CNS
SW-620 colon = system: SW-620 colon
T-47D breast = system: T-47D breast
TK-10 renal = system: TK-10 renal
U251 CNS = system: U251 CNS
UACC-257 melanoma = system: UACC-257 melanoma
UACC-62 melanoma = system: UACC-62 melanoma
UO-31 renal = system: UO-31 renal

Compound `COc1cccc2c1C(=O)c1c(O)c3c(c(O)c1C2=O)C[C@@](O)(C(=O)CO)C[C@@H]3OC1CC(OC(C)=O)C(OC(C)=O)C(C)O1` (some centres not stated) has a GI50 (786-0 renal) of 272 nM, a TGI (786-0 renal) of 1410 nM and a GI50 (A498 renal) of 127 nM. The TGI (A498 renal) was 1620 nM, the GI50 (A549 NSCLC) was 410 nM and the TGI (A549 NSCLC) was 2770 nM. It also gave a GI50 (ACHN renal) of 152 nM, a TGI (ACHN renal) of 1440 nM and a GI50 (BT-549 breast) of 386 nM. It also gave a TGI (BT-549 breast) of 4290 nM, a GI50 (CAKI-1 renal) of 180 nM and a TGI (CAKI-1 renal) of 1440 nM. For the same compound, the GI50 (CCRF-CEM leukemia) was 43.5 nM, the TGI (CCRF-CEM leukemia) was 764 nM and the GI50 (COLO 205 colon) was 801 nM. It also gave a TGI (COLO 205 colon) of 4450 nM, a GI50 (DU-145 prostate) of 120 nM and a TGI (DU-145 prostate) of 719 nM. It also gave a GI50 (EKVX NSCLC) of 1920 nM, a TGI (EKVX NSCLC) of 9500 nM and a GI50 (HCC-2998 colon) of 1280 nM. For the same compound, the TGI (HCC-2998 colon) was 3190 nM, the GI50 (HCT-116 colon) was 279 nM and the TGI (HCT-116 colon) was 1890 nM. For the same compound, the GI50 (HCT-15 colon) was 491 nM, the TGI (HCT-15 colon) was 6750 nM and the GI50 (HL-60(TB) leukemia) was 235 nM. For the same compound, the GI50 (HOP-62 NSCLC) was 314 nM, the TGI (HOP-62 NSCLC) was 2270 nM and the GI50 (HOP-92 NSCLC) was 239 nM. The TGI (HS 578T breast) was 4140 nM, the GI50 (HT29 colon) was 1020 nM and the TGI (HT29 colon) was > 32100 nM. It also gave a TGI (IGROV1 ovarian) of 3910 nM, a GI50 (K-562 leukemia) of 868 nM and a GI50 (KM12 colon) of 549 nM. For the same compound, the TGI (KM12 colon) was 3740 nM, the GI50 (LOX IMVI melanoma) was 284 nM and the TGI (LOX IMVI melanoma) was > 20000 nM. The GI50 (M14 melanoma) was 529 nM, the TGI (M14 melanoma) was 2260 nM and the GI50 (MALME-3M melanoma) was 502 nM. For the same compound, the TGI (MALME-3M melanoma) was 2190 nM, the GI50 (MCF7 breast) was < 28.4 nM and the TGI (MCF7 breast) was 7640 nM. For the same compound, the GI50 (MDA-MB-231 breast) was 2890 nM, the TGI (MDA-MB-231 breast) was 15600 nM and the GI50 (MDA-MB-435) was 1270 nM. For the same compound, the TGI (MDA-MB-435) was 4630 nM, the GI50 (MOLT-4 leukemia) was < 28.2 nM and the GI50 (NCI-H226 lung) was 193 nM. It also gave a TGI (NCI-H226 lung) of 1160 nM, a GI50 (NCI-H23 lung) of 227 nM and a TGI (NCI-H23 lung) of 1500 nM. The GI50 (NCI-H460 lung) was < 23.9 nM, the TGI (NCI-H460 lung) was 1570 nM and the GI50 (NCI-H522 lung) was 578 nM. For the same compound, the TGI (NCI-H522 lung) was 3360 nM, the GI50 (NCI/ADR-RES ovarian) was 552 nM and the GI50 (OVCAR-3 ovarian) was 965 nM. The TGI (OVCAR-3 ovarian) was 4570 nM, the GI50 (OVCAR-4 ovarian) was 2240 nM and the TGI (OVCAR-4 ovarian) was > 39600 nM. For the same compound, the GI50 (OVCAR-5 ovarian) was 1160 nM, the TGI (OVCAR-5 ovarian) was 5000 nM and the GI50 (OVCAR-8 ovarian) was 479 nM. The TGI (OVCAR-8 ovarian) was > 58100 nM, the GI50 (PC-3 prostate) was 1480 nM and the TGI (PC-3 prostate) was > 23300 nM. For the same compound, the GI50 (RPMI-8226 leukemia) was 226 nM, the TGI (RPMI-8226 leukemia) was 2110 nM and the GI50 (RXF 393 renal) was 1410 nM. It also gave a TGI (RXF 393 renal) of 3720 nM, a GI50 (SF-268 CNS) of 287 nM and a TGI (SF-268 CNS) of 4460 nM. It also gave a GI50 (SF-295 CNS) of 234 nM, a TGI (SF-295 CNS) of 1250 nM and a GI50 (SF-539 CNS) of 267 nM. It also gave a TGI (SF-539 CNS) of 1900 nM, a GI50 (SK-MEL-2 melanoma) of 1870 nM and a TGI (SK-MEL-2 melanoma) of 4950 nM. It also gave a GI50 (SK-MEL-28 melanoma) of 1390 nM, a TGI (SK-MEL-28 melanoma) of 3200 nM and a GI50 (SK-MEL-5 melanoma) of 249 nM. The TGI (SK-MEL-5 melanoma) was 1670 nM, the GI50 (SK-OV-3 ovarian) was 830 nM and the TGI (SK-OV-3 ovarian) was 6500 nM. It also gave a GI50 (SN12C renal) of 255 nM, a TGI (SN12C renal) of 5870 nM and a GI50 (SNB-19 CNS) of 496 nM. For the same compound, the TGI (SNB-19 CNS) was > 100000 nM, the GI50 (SNB-75 CNS) was 687 nM and the TGI (SNB-75 CNS) was 8530 nM. For the same compound, the GI50 (SW-620 colon) was 277 nM, the TGI (SW-620 colon) was 3450 nM and the GI50 (T-47D breast) was 237 nM. The TGI (T-47D breast) was 1990 nM, the GI50 (TK-10 renal) was 985 nM and the TGI (TK-10 renal) was 6430 nM. For the same compound, the GI50 (U251 CNS) was 275 nM, the TGI (U251 CNS) was 7930 nM and the GI50 (UACC-257 melanoma) was 1370 nM. The TGI (UACC-257 melanoma) was 4250 nM, the GI50 (UACC-62 melanoma) was 230 nM and the TGI (UACC-62 melanoma) was 1890 nM. For the same compound, the GI50 (UO-31 renal) was 258 nM and the TGI (UO-31 renal) was 1990 nM.
